{
  "source": "patent US20110045477A1",
  "about": "“HUMAN SKIN EXPLANT CULTURE SYSTEM AND USE THEREFOR” (priority 2009, published 2011)",
  "key": {"human skin explants [1]": {"system": "human skin explants", "assay": "LUNA staining of elastin fibers in skin explants", "format": "cell-based", "conditions": "20 ng/ml in Medium 1, 37° C., grade 1-5, 5 = best fiber quality", "procedure": "(§1) Skin explant cultures were established as described in Example 1, using Medium 1. Explants were incubated at 37° C. in a 5% CO2 atmosphere. Skin explants either remained untreated or were treated, in Medium 1, with TGF-β, an agent known to increase elastin production. Media were refreshed daily. After predetermined time periods, the skin explants were harvested, and processed for histological, immunohistochemical, and gene expression evaluation as follows. • 1. LUNA staining was used to document elastin fibers histologically, as described in Kligman, Am. J. of Dermatopathology, 3(2): 199-201, 1981. The grading of elastin fiber quality ranged from 1-5, when 5 represented best fiber quality. • 2. Ki67 was used as a marker for cell proliferation, using immunohistochemistry techniques with a rabbit monoclonal antibody for Ki67, purchased from Thermo Scientific (Pittsburgh, Pa.). Immunohistochemistry staining was performed according to manufacturer's instructions. The grading of Ki67 ranged from 1-5, when 5 represented normal Ki67 level in the skin sample prior to culture. • 3. Levels of elastin gene expression (mRNA levels) were evaluated by QPCR. Total RNA was extracted from skin explants using Trizol (Invitrogen, Carlsbad Calif.) according to manufacturer's instructions. […]"}, "elastin gene expression": {"system": "elastin gene expression", "assay": "Elastin gene expression (mRNA) by QPCR in skin explants", "format": "cell-based, human", "conditions": "20 ng/ml", "procedure": "as §1"}, "human skin explants [2]": {"system": "human skin explants", "assay": "Ki67 immunohistochemistry (cell proliferation marker) in skin explants", "format": "cell-based", "conditions": "20 ng/ml in Medium 1, 37° C., grade 1-5, 5 = normal level prior to culture", "procedure": "as §1"}, "[3]": {"system": "subcutaneous adipose layer of skin explants", "assay": "Lipogenesis: triglyceride synthesis from C-14 acetate in subcutaneous fat of skin explants (HPTLC)", "format": "cell-based, human", "conditions": "20 μM in medium, untreated control 100%", "procedure": "(§2) To examine the metabolic activity of the subcutaneous adipose layer, explant cultures were established as described in Example 1, using optimized media with 5% serum. After overnight incubation, skin explants remained untreated or were treated with 20 μM of rosiglitazone or with 50 μM of conjugated linoleic acid in the media, for the evaluation of their effect on lipogenesis and lipolysis of subcutaneous adipose layer. Explants were incubated at 37° C. in a 5% CO2 atmosphere.\nFor assessing lipogenesis, skin explants were cultured in medium containing 20 μM of rosiglitazone and C-14 labeled acetate for 24 hours. Subcutaneous fat was then harvested, and the levels of triglyceride were determined by HPTLC as described in (Pappas et al., JID 118 (1) 164-171, 2002)."}, "[4]": {"system": "subcutaneous adipose layer of skin explants", "assay": "Lipolysis: glycerol released into culture media of skin explants", "format": "cell-based, human", "conditions": "50 μM in medium, untreated control 100%", "procedure": "as §2\nFor evaluating lipolysis, skin explants were cultured in medium containing 50 μM of conjugated linoleic acid, and culture media were collected at indicated time points. The levels of glycerol released into the media were determined using the free glycerol reagent and kit (Sigma), which was used according to manufacture instruction."}},
  "data": [
    {"compound": "TGF-β", "values": [
      {"measurement": "LUNA staining Elastin fibers (grade)", "setting": "human skin explants [1]; Day 5", "result": 3},
      {"measurement": "LUNA staining Elastin fibers (grade)", "setting": "human skin explants [1]; Day 7", "result": 4},
      {"measurement": "Elastin mRNA (QPCR)", "setting": "elastin gene expression; Day 5, untreated control normalized to 100%", "result": 369, "unit": "%"},
      {"measurement": "Elastin mRNA (QPCR)", "setting": "elastin gene expression; Day 7, untreated control Day 5 = 100% (Day 7 control 243%)", "result": 423, "unit": "%"},
      {"measurement": "Ki67 Proliferation marker (grade)", "setting": "human skin explants [2]; Day 5", "result": 4},
      {"measurement": "Ki67 Proliferation marker (grade)", "setting": "human skin explants [2]; Day 7", "result": 4}
    ]},
    {"compound": "CN(CCOc1ccc(CC2SC(=O)NC2=O)cc1)c1ccccn1", "note": "(centres unmarked) [Rosiglitazone, rosiglitazone]", "values": [
      {"measurement": "Triglyceride synthesis at 24 hr (lipogenesis)", "setting": "[3]", "result": "240-270%"}
    ]},
    {"compound": "conjugated linoleic acid", "values": [
      {"measurement": "Glyceral release at day 3 (lipolysis)", "setting": "[4]", "result": 140, "unit": "%"}
    ]}
  ]
}
